In patent US20120064175A1, “HSP90 Inhibitors for Treating Non-Small Cell Lung Cancer in Wild-Type EGFR and/or KRAS Patients” (Synta Pharmaceuticals Corp., priority 2010, published 2012):

Legend:
FLT3 with Hsp90 = settings: cited from earlier work
[1] = tested on: leukemia cells that express either wild type FLT3 or FLT3-ITD mutations; settings: Yao, et al. 2003; cited from earlier work
Kasumi-1 cells = settings: acute myeloid leukemia cell line that harbors a mutation in c-Kit; cited from earlier work
[2] = tested on: RERF-LC-AI human squamous non-small cell lung cancer cell line; experiment: Nude mouse xenograft model with RERF-LC-AI human tumor cells; type: in vivo; settings: RERF-LC-AI^IVP tumors, i.p., 5 days per week, 15 doses; heading only, no data given
Procedure: The human squamous non-small cell lung cancer cell line, RERF-LC-AI (RCB0444; S. Kyoizumi, et al., Cancer. Res. 45:3274-3281, 1985), was obtained from the Riken Cell Bank (Tsukuba, Ibaraki, Japan). The cell line was cultured in growth media prepared from 50% Dulbecco's Modified Eagle Medium (high glucose), 50% RPMI Media 1640, 10% fetal bovine serum (FBS), 1% 100×L-glutamine, 1% 100× penicillin-streptomycin, 1% 100× sodium pyruvate and 1% 100×MEM non-essential amino acids. FBS was obtained from American Type Culture Collection (Manassas, Va., USA) and all other reagents were obtained from Invitrogen Corp. (Carlsbad, Calif., USA). […]
The growth media was replaced every 2-3 days until the flask became 90% confluent, typically in 5-7 days. […] The supernatant was aspirated and the cell pellet was resuspended in 10 ml of growth media and the cell number determined using a hemocytometer. […]
Seven to eight week old, female Crl:CD-1-nuBR (nude) mice were obtained from Charles River Laboratories (Wilmington, Mass., USA) Animals were housed 4-5/cage in micro-isolators, with a 12 hr/12 hr light/dark cycle, acclimated for at least 1 week prior to use and fed normal laboratory chow ad libitum. […] Tumor volumes (V) were calculated by caliper measurement of the width (W), length (L) and thickness (T) of tumors using the following formula: V=0.5236×(L×W×T). […]

Row | SMILES | Effect on the association of FLT3 with Hsp90 (FLT3 with Hsp90) | Growth of leukemia cells [1] | Apoptosis (Kasumi-1 cells) | Anti-tumor activity against human tumor cells in a nude mouse xenograft model [2]
1 | C=CCNC1=C2C[C@@H](C)C[C@H](OC)[C@H](O)[C@@H](C)/C=C(\C)[C@H](OC(N)=O)[C@@H](OC)/C=C\C=C(/C)C(=O)NC(=CC1=O)C2=O [Compound 17AAG, 17-allylamino-17-demethoxygeldanamycin] | disrupt the association of FLT3 with Hsp90 | inhibited | induce apoptosis | –
2 | CCc1cc(-c2nnc(S)n2-c2ccc(O)c3c2ccn3C(C)C)c(O)cc1O [Compound 48, 3-(2,4-DIHYDROXY-5-ETHYL- PHENYL)-4-(1-ISOPROPYL-7- HYDROXY-INDOL-4-YL)-5- MERCAPTO-[1,2,4] TRIAZOLE] | – | – | – | Displays Anti-tumor Activity
